{"source": "patent US20090203605A1", "about": "“Methods For Treating A Condition Characterized By Dysfunction In Protein Homeostasis” (THE SCRIPPS RESEARCH INSTITUTE, priority 2008, published 2009)", "target": "T1, G269S/1278insTATC HexA (Homo sapiens, UniProt P06865, G269S)", "T1 construct": "host or cells: Tay-Sachs patient fibroblasts, lysed for the MUGS assay", "T1 sequence (P06865 89-529 G269S)": "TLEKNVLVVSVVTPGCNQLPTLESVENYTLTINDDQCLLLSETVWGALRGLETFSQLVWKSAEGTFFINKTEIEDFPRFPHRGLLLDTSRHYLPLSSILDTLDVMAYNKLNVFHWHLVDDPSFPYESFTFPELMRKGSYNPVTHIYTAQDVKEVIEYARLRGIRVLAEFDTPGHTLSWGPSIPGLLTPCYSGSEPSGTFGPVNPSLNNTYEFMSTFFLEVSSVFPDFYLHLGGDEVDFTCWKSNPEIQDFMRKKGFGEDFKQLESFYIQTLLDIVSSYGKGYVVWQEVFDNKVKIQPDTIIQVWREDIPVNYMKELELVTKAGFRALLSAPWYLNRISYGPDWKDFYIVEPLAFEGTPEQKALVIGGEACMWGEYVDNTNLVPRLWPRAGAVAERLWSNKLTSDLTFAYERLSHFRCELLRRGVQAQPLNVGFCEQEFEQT", "T1 sequence (P07686 122-556 partner)": "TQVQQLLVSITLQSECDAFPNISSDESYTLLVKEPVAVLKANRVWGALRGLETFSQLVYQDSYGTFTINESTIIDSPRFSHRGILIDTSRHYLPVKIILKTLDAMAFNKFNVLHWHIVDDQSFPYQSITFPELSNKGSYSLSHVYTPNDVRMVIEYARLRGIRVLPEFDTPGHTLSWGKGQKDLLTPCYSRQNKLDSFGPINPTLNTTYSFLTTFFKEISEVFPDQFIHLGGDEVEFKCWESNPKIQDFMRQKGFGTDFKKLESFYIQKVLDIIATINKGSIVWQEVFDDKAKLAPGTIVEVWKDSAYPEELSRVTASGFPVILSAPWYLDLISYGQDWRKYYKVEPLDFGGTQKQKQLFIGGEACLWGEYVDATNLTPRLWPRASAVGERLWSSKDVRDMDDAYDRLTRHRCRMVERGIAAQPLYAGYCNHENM", "test": "Hex α-site cell assay in Tay-Sachs fibroblast cell line", "assay_type": "cell-based", "settings": "MG-132 0.8 to 1 μM, 144 h incubation", "text": "We therefore evaluated the ability of these proteostasis regulators to restore partial function to HexA, a heterodimeric enzyme composed of α- and β-subunits that degrades GM2 gangliosides in the lysosome. Mutations in the β-hexosaminidase A α-subunit can cause extensive ERAD of HexA, leading to Tay-Sachs disease (TSD). Jeyakumar et al., Neuropathol Appl Neurobiol 28: 343-357, 2002. HexA activity was studied in a compound heterozygous fibroblast cell line (GM13204), harboring one of the most prevalent β-hexosaminidase A α-subunit mutations (G269S) found in Tay-Sachs patients and a second mutated HexA allele (1278insTATC) with a stop codon. […] Tropak et al., J Biol Chem 279: 13478-13487, 2004.\nThe Hex α-site cell assay has been previously described. Tropak et al., J Biol Chem 279: 13478-13487, 2004. Cells were plated as described for the GC assay. After 1 to 8 days of incubation the medium was removed, cells were washed with PBS, and lysed with 60 μl of 10 mM citrate/phosphate buffer pH 4.2 (CP buffer) containing 0.5% human serum albumin and 0.5% Triton X-100. 30 μl of aliquots were transferred to a 96-well plate and Hex α-site activity was measured by adding 30 μl of 3.2 mM MUGS in CP buffer to each well and incubating the plates at 37° C. for 1 to 7 hour. The reaction was stopped by adding 200 μl of 0.1 M 2-amino-2-methyl-1-propanol pH 10.5 and the fluorescence was measured (excitation 365 nm, emission 450 nm).", "note": "Residues, ends and D or L forms follow the SMILES beside them. *: point of attachment. Cbz = O=C(OCc1ccccc1)*", "data": [{"smiles": "CC(C)C[C@@H](C=O)NC(=O)[C@H](CC(C)C)NC(=O)[C@H](CC(C)C)NC(=O)OCc1ccccc1", "note": "[MG-132] (Cbz-Leu-Leu-Leu-aldehyde)", "values": [{"measurement": "Hex α-site activity as % of cellular WT Hex α-site activity", "result": "≈ 18%"}]}]}
